From PubChem BioAssay (NCI)
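The compound was tested at five concentrations on cells cultured in 96-well plates, with a 48-hour exposure period. Abbreviation: GI50, concentration required for 50% inhibition of growth. At the TGI there is no net growth.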

What was measured:
Test in all cases: inhibition of tumour cell growth, NCI panel, 48 h
CCRF-CEM leukemia = system: CCRF-CEM leukemia
DLD-1 colon = system: DLD-1 colon
HCT-116 colon = system: HCT-116 colon
HCT-15 colon = system: HCT-15 colon
IGROV1 ovarian = system: IGROV1 ovarian
K-562 leukemia = system: K-562 leukemia
MDA-N = system: MDA-N
SF-268 CNS = system: SF-268 CNS
T-47D breast = system: T-47D breast
U251 CNS = system: U251 CNS

| SMILES | TGI (CCRF-CEM leukemia) [µM] | TGI (DLD-1 colon) [µM] | TGI (HCT-116 colon) [µM] | TGI (HCT-15 colon) [µM] | TGI (IGROV1 ovarian) [µM] | TGI (K-562 leukemia) [µM] | TGI (MDA-N) [µM] | TGI (SF-268 CNS) [µM] | TGI (T-47D breast) [µM] | TGI (U251 CNS) [µM] | GI50 (HCT-116 colon) [µM] | GI50 (HCT-15 colon) [µM] | GI50 (IGROV1 ovarian) [µM] | GI50 (K-562 leukemia) [µM] | GI50 (MDA-N) [µM] | GI50 (T-47D breast) [µM] | GI50 (U251 CNS) [µM] |
| --- | --- | --- | --- | --- | --- | --- | --- | --- | --- | --- | --- | --- | --- | --- | --- | --- | --- |
| O=C(c1ccc(Cl)cc1)C1OC12C(=O)Nc1ccccc12 (stereo not drawn) | 4.71 | 6.29 | 13.6 | 11.2 | 39.1 | 11.2 | 14.5 | 40.2 | 47.7 | 32 | – | – | – | – | – | – | – |
| COc1ccc(CCc2cc(OC)c(OC)c(OC)c2)cc1 | 12.4 | > 100 | 9.41 | 10.2 | > 100 | 13.7 | 0.021 | 19.6 | – | 2.73 | – | – | – | – | – | – | – |
| Nc1ccc(S(=O)(=O)Nc2cnc3c(Cl)cccc3n2)cc1 | > 657 | > 655 | 609 | > 562 | > 275 | > 750 | > 566 | 704 | > 750 | > 750 | 14.7 | 43.5 | 1.16 | 36.4 | > 66.9 | 48.2 | 68 |
| COc1cc(/C=C(\C#N)C(N)=C(C#N)C#N)cc(O)c1O | > 81.1 | > 100 | > 100 | > 100 | > 100 | > 100 | > 100 | > 100 | > 100 | > 100 | – | – | – | – | – | – | – |
| COc1nc(NC2OC(COC(C)=O)C(OC(C)=O)C(OC(C)=O)C2OC(C)=O)c(-c2csc(N)n2)c(=O)n1C (stereo not drawn) | > 100 | > 100 | > 100 | > 100 | > 100 | > 100 | – | > 100 | – | > 100 | – | – | – | – | – | – | – |
| COC(=O)/C(=N\NC(N)=S)C(C#N)c1ccccc1 (stereo not drawn) | > 100 | > 100 | > 100 | > 100 | > 100 | > 100 | – | > 100 | – | > 100 | – | – | – | – | – | – | – |
| Cc1ccc(NC(=O)CC(=O)N2N=C(N(CCC#N)c3cccc(C)c3)CC2c2ccccc2)cc1 (stereo not drawn) | > 100 | > 100 | > 100 | > 100 | > 100 | > 100 | – | > 100 | – | > 100 | – | – | – | – | – | – | – |
| COc1ccccc1NC(=O)C(CC(C(=O)Nc1ccccc1OC)/C(C)=N/Nc1ccc([N+](=O)[O-])cc1[N+](=O)[O-])/C(C)=N/Nc1ccc([N+](=O)[O-])cc1[N+](=O)[O-] (stereo not drawn) | > 100 | > 100 | > 100 | > 100 | > 100 | > 100 | – | > 100 | – | > 100 | – | – | – | – | – | – | – |
